For assay [1], the system named is rats. Nature of the assay: FCA induced hypersensitivity rat model (intraplantar FCA, weight bearing). Type of assay: in vivo. As to conditions: 1 hour post dose; for weight bearing % reversal: 10 mg/kg p.o., 24 hrs after FCA. As to the method:
(§1) Naïve weight bearing readings were taken. The hypersensitivity to pain was measured using the Rat incapacitance tester (Linton instruments). All rats (180-220 g) received an intraplantar injection of 100 ul of FCA (Freund's complete adjuvant) into the left hind paw. The FCA was sonicated for 15 minutes prior to use. 24 hrs after administration of the FCA, pre-dose weight bearing readings were taken. All animals were then ranked and randomised for dosing according to their FCA window (predose difference in grams—naïve difference in grams). Rats with FCA window less than 30 were excluded from the study.
Animals were then dosed orally with either vehicle, SB42457 (0.01, 0.1, 1 and 10 mg/kg p.o.) or celecoxib (10 mg/kg p.o.) as appropriate according to ranking and randomisation. Animals were assessed in the weight bearing apparatus 1 hour post dose.
The study was blind and randomised by FCA window using the Latin square method. % reversals were calculated by using the naïve, pre-dose and post dose values as follows: % Reversal=[(Pre-dose−Post-dose)/(Pre-dose−Naïve)]×100.
Graphs were plotted using Prism3. Statistical analysis was carried out using ANOVA and Fischer LSD test from statistical package Statistica 6.
In this study a positive control was also tested (celecoxib).
as §1, with “(200-220” for “(180-220”
Animals were then dosed orally with vehicle, SB-792988-A (0.01, 0.1, 1 and 10 mg/kg p.o.), SB-399885-A (10 mg/kg p.o.) or celecoxib (10 mg/kg p.o.) as appropriate according to ranking and randomisation. Animals were assessed in the weight bearing apparatus 1 hour post dose.
Graphs and were plotted using Prism3. Statistical analysis was carried out using ANOVA and Fischer LSD test from statistical package Statistica 6.

The test system of a further assay is male Sprague Dawley rats. The assay can be described thus: rat intra rectal mustard oil model of visceral pain. Format: in vivo. Particulars: behaviours counted 25 minutes. How it is done:
All behavioural responses consistent with the presence of pain were determined following intra rectal injection of mustard oil in male Sprague Dawley rats. Typical behavioural responses consistent with the presence of pain following intra-colonic mustard oil injection include: arching, abdominal lifting, abdominal tensing, stretching, extending the rear leg (when lying down), raising and lowering the testicles, tip-toeing and writhing.
Male Sprague Dawley rats (130 g-160 g) were briefly sedated with 50% oxygen/50% carbon dioxide and 0.2 ml of 3% mustard oil injected into the colorectum, 1.5 cm from the anus. The anus was plugged with vaseline and animals placed in observational cages to which they had previously been acclimatised for 45 minutes prior to mustard oil injection. The number of visceral pain related behaviours, which consisted primarily of abdominal arching, were counted over a 25 minute period and the animals culled by cervical dislocation.
In separate studies, the effects of alosetron (0.1, 0.3 and 1.0 mg/kg n=10 per group), gabapentin (10, 30 and 100 mg/kg n=10 per group) and amitriptyline (3, 10 and 30 mg/kg n=9-10 per group) or vehicle (saline for alosetron and amitriptyline 10% 1-Methyl-2-pyrolidone in saline for gabapentin n=10 per study) given sub cutaneously 15 minutes prior to injection of 3% mustard oil were examined on pain behaviour. Results in FIGS. 4, 5 and 6 are expressed as mean±sem percentage of behaviours compared to vehicle treated animals and were statistically compared to vehicle treated animals using a one way ANOVA with Dunnett's comparison, p<0.05 considered significant.
The effect of SB742457 (0.03, 0.1, 1.0, 3.0 and 10 mg/kg, n=10 per group for the 0.03, 0.1 and 10 mg/kg groups, and n=20 for the 1.0 and 3.0 mg/kg groups) or vehicle (saline n=20) given orally 60 minutes prior to injection of mustard oil (3% mustard oil, 70% ethanol in saline) were examined on pain behaviour. The total number of visceral pain related behaviours, which consisted primarily of abdominal arching, were counted over a 25 minute period and the animals culled by cervical dislocation. Behaviours were normalised as the percentage of the vehicle group mean and expressed as mean+/−sem. Data was combined from two studies and normalised as the percentage of the vehicle group mean for each individual study and expressed as mean+/−sem for both studies. Percentage of behaviours compared to vehicle treated animals were analysed statistically using a one way ANOVA with Dunnett's comparison, p<0.05 considered significant, FIG. 10.
The effect of SB792988A (0.03, 0.1, 0.3, 1.0, 3.0 and 10 mg/kg, n=9 for 1.0 mg/kg, n=10 per group for the 0.03, 0.1 and 3.0 mg/kg groups, n=20 per group for the 0.3 and 10 mg/kg groups) or vehicle (saline n=20) given orally 60 minutes prior to injection of mustard oil (3% mustard oil, 70% ethanol in saline) were examined on pain behaviour. The total number of visceral pain related behaviours, which consisted primarily of abdominal arching, were counted over a 25 minute period and the animals culled by cervical dislocation. Behaviours were normalised as the percentage of the vehicle group mean and expressed as mean+/−sem. Data was combined from two studies and normalised as the percentage of the vehicle group mean for each individual study and expressed as mean+/−sem for both studies. Percentage of behaviours compared to vehicle treated animals were analysed statistically using a one way ANOVA with Dunnett's comparison, p<0.05 considered significant, FIG. 11.

The subject of another assay is Random Hooded rats. Nature of the assay: rat joint pain model of chronic inflammatory pain (intra-articular FCA, hind paw weight bearing). Format: in vivo. As to conditions: for Statistics for hypersensitivity data (weight bearing), significance vs vehicle, Day 14: Day 14 post FCA; for Statistics for hypersensitivity data (weight bearing), significance vs vehicle, Day 15: Day 15 post FCA; for Statistics for hypersensitivity data (weight bearing), significance vs vehicle, Day 17: Day 17 post FCA. As to the method:
Random Hooded rats, 150-180 g, obtained from Charles River UK, were anaesthetised under gaseous anaesthetic and the area surrounding the left and right knee joint shaved and cleaned as for aseptic surgery. Animals were injected with 150 μl of FCA into the left knee joint (intra-articular injection). Animals were immediately allowed to recover from anaesthetic in a warmed/oxygenated environment until being returned to their home cage on paper bedding. No further post-op care was provided.
Rats were tested prior to surgery and from 18 h post FCA (minimum of once weekly) for weight bearing (g) and joint diameter (mm). Weight bearing is measured by the animal's ability to place body weight across both hind paws on a Dual Channel Weight Averager which was calibrated each day prior to use using a 10 g weight (Rat capacitance tester—Linton Instruments). Hind paw weight bearing data was calculated and expressed as the percentage of the contralateral paw.
All data were expressed as mean±s.e.m.
Prior to FCA intra-articular injection into the left knee, rats display even weight bearing. By day 1 post-insult weight bearing had shifted such that the majority of the body weight was transmitted through the contralateral limb. By day 10 this effect was maintained and at this point animals were randomised across treatment groups. Once daily dosing with vehicle, SB742457 or celecoxib began on day 13 and continued up to and including day 17.
Rats were tested prior to surgery and from 18 h post FCA (minimum of once weekly) for weight bearing (g) and joint diameter (mm). Weight bearing is measured by the animal's ability to place body weight across both hind paws on a Dual Channel Weight Averager which was calibrated each day prior to use using a 100 g weight (Rat capacitance tester—Linton Instruments). Hind paw weight bearing data was calculated and expressed as the percentage of the contralateral paw.
Prior to FCA intra-articular injection into the left knee, rats display even weight bearing. By day 1 post-insult weight bearing had shifted such that the majority of the body weight was transmitted through the contralateral limb. By day 10 this effect was maintained and at this point animals were randomised across treatment groups. Once daily dosing with vehicle, SB792988A or celecoxib began on day 13 and continued up to and including day 17. […] AUC was calculated using Microsoft Excel.

Assay [2] relates to rats. Nature of the assay: Chronic Constriction Injury (CCI) model of neuropathic pain in rats (mechanical allodynia, Von Frey hairs). Format: in vivo, rat. As to conditions: 30 mg/kg b.i.d. po. As to the method: Under Isoflurane anaesthesia, the sciatic nerve in the left leg of the rat was exposed at mid thigh level and 4 loose ligatures of Chromic 4.0 gut tied around it. The wound was closed and secured with staples. The Sham operated animals underwent the same surgical technique except that the nerve was not ligated. […] The presence of mechanical (tactile) allodynia was assessed using the manual application of Von Frey hair monofilaments (Stoelting, Wood Dale, Ill., USA). Animals were placed in clear Perspex boxes on a raised perforated metallic platform, from below which the monofilaments were applied in ascending order to the plantar region of the hind paw (range: 1.4 g-26 g). Each hair was applied for approx. 3-5 seconds until a withdrawal response was observed. The lowest hair to give a withdrawal was recorded as the response after confirmation with reapplication of lower and/or higher hairs within the range tested.
All data are expressed as mean±s.e.m. Statistical analysis was carried out using Repeated Measures ANOVA (Statistica Version 6) to compare the vehicle treated groups with the drug treated groups (P<0.05 considered significant). Area Under Curve (AUC) calculations were performed within Excel and statistical analysis was carried out using a one-way ANOVA followed by Fischer LSD post-hoc test (Statistica Version 6) to compare the vehicle treated CCI and Sham groups with the drug treated groups (P<0.05 considered significant). Data recorded in Excel (Microsoft XP) and graphs produced in GraphPad Prism (Version 4).
By 8 days post-surgery neuropathy was beginning to develop as mechanical allodynia (assessed using mVFHs) was evident in all CCI operated groups compared to the Sham operated animals. This was maintained as a stable baseline until day 23 post-surgery (FIG. 12), when the animals were randomised and then chronically dosed with either SB742457 (10 mg/kg b.i.d. po), gabapentin (30 mg/kg b.i.d. po) or vehicle (1% methylcellulose; b.i.d. po) for 8 days (days 26-33 post-surgery). […] Three days after cessation of treatment the withdrawal thresholds of the drug treated groups had decreased back towards vehicle treated baseline levels.

Setting [3] is: 10 mg/kg sub cutaneously 15 minutes prior to 3% mustard oil.
Where [4] appears, read: 30 mg/kg sub cutaneously 15 minutes prior to 3% mustard oil.
Setting [5] is: 30 mg/kg oral once daily from day 13, SB742457 study.
Setting [6] is: 30 mg/kg oral once daily from day 13, SB792988A study.

Regarding `COc1ccc(S(=O)(=O)Nc2cc(Cl)cc(Cl)c2OC)cc1N1CCNCC1.Cl` [SB399885A, N-(3,5-dichloro-2-methoxy-phenyl)-4-methoxy-3-piperazin-1-yl-benzenesulfonamide hydrochloride, reference compound], in the assay on rats [1] (Table 7), the “weight bearing % reversal” value worked out at 15.26 ± 5.70%. For the same compound, in the assay on rats [1] (p.o., intraplantar FCA), the “effect on FCA induced hypersensitivity” value is listed as “no effect”.
With `Cc1[nH]cnc1CN1CCc2c(c3ccccc3n2C)C1=O` [alosetron, reference compound], the “reduction in behaviours compared to vehicle treated animals” value (shortened to “reduction in behaviours”) in the assay on male Sprague Dawley rats (0.1 mg/kg sub cutaneously 15 minutes prior to 3% mustard oil) was found to be 56%; with male Sprague Dawley rats (0.3 mg/kg sub cutaneously 15 minutes prior to 3% mustard oil) it was 56%; in the assay on male Sprague Dawley rats (1.0 mg/kg sub cutaneously 15 minutes prior to 3% mustard oil), 54%.
As to `CN(C)CCC=C1c2ccccc2CCc2ccccc21` [amitriptyline, reference compound], the entries for the “reduction in behaviours” value in the assay with male Sprague Dawley rats (3 mg/kg sub cutaneously 15 minutes prior to 3% mustard oil), with male Sprague Dawley rats (setting [3]) and with male Sprague Dawley rats (setting [4]) were 43%, 73% and 91%, respectively.
Consider `Cc1ccc(-c2cc(C(F)(F)F)nn2-c2ccc(S(N)(=O)=O)cc2)cc1` [celecoxib, reference compound], for which the “weight bearing % reversal” value in the assay with rats [1] (Table 5) is 74.81 ± 8.79%. Moreover, the “weight bearing % reversal” value with rats [1] (Table 7) is 73.00 ± 6.01%. Moreover, in the assay with Random Hooded rats (30 mg/kg oral once daily days 13-17, AUC, SB742457 study), the “Statistics for hypersensitivity data, significance vs vehicle, AUC” value was “*** (*** = p < 0.001)”. In the assay on Random Hooded rats (30 mg/kg oral once daily from day 13, Day 13 post FCA, SB742457 study), the “Statistics for hypersensitivity data (weight bearing), significance vs vehicle, Day 13” value is on record as “* (* = p < 0.05)”. For the same compound, in the assay on Random Hooded rats (setting [5]), the “Statistics for hypersensitivity data (weight bearing), significance vs vehicle, Day 14” value is on record as “*** (*** = p < 0.001)”; the “Statistics for hypersensitivity data (weight bearing), significance vs vehicle, Day 15” value is on record as “*** (*** = p < 0.001)”; the “Statistics for hypersensitivity data (weight bearing), significance vs vehicle, Day 17” value is listed as “*** (*** = p < 0.001)”. Moreover, in the assay on Random Hooded rats (setting [6]), the “Statistics for hypersensitivity data (weight bearing), significance vs vehicle, Day 14” value is listed as “* (* = p < 0.05)”; the “Statistics for hypersensitivity data (weight bearing), significance vs vehicle, Day 15” value is listed as “*** (*** = p < 0.001)”; the “Statistics for hypersensitivity data (weight bearing), significance vs vehicle, Day 17” value is recorded as “*** (*** = p < 0.001)”. Besides, the “Statistics for hypersensitivity data (weight bearing), significance vs vehicle, Day 16” value in the assay on Random Hooded rats (30 mg/kg oral once daily from day 13, Day 16 post FCA, SB792988A study) is given as “*** (*** = p < 0.001)”.
For `NCC1(CC(=O)O)CCCCC1` [gabapentin, reference compound], the “reversal of mechanical allodynia after 5 days of dosing” value in the assay with rats [2] (after 5 days of dosing) was “not significantly different to Sham levels”. In addition, in the assay on rats [2] (after 8 days of dosing), the “reversal of mechanical allodynia after 8 days of dosing” value is “maximal reversal (P<0.001) back to Sham levels”. Besides, the “reduction in behaviours” value came to 28% in the assay with male Sprague Dawley rats (setting [3]), 50% in the assay on male Sprague Dawley rats (setting [4]) and 69% with male Sprague Dawley rats (100 mg/kg sub cutaneously 15 minutes prior to 3% mustard oil).

The values above are taken from patent US20100041672A1, “USE OF QUINOLINE DERIVATIVES IN THE TREATMENT OF PAIN AND IRRITABLE BOWEL SYNDROME” (GLAXO GROUP LIMITED, priority 2007, published 2010).
